# In patent US6407058B1, “Modifying the permeability of physiological barriers” (Eisai Co., Limited, priority 1996, dated 2002):
# Test system: p100/p120
# Experiment: p100/p120 electrophoretic mobility, LLC-PK1 cells
# Assay type: cell-based, porcine
# Conditions: 200 nM PDB, 30 minutes
# Description: p100 and p120 electrophoretic mobility is affected by PDB in a number of different epithelial cell lines. LLC-PK1, (a porcine kidney cell line), MDCK strain II cells and gut-derived Caco-2 cells were treated with or without 200 nM PDB for 30 minutes, lysed into Laemmli sample buffer, separated by electrophoresis and analysed by immunoblotting.
# MDCK strain I and II cells were provided by Barry Gumbiner (memorial Sloan-Kettering Cancer Center, NY). LLC-PK1 and Caco-2 cells were obtained from the European Collection of Animal Cell Cultures. All cells were maintained at 37° C. under 5% CO2 in humidified air. MDCK strain I and II cells were maintained in MEM containing 10% FCS, 100 U/ml penicillin, 100 μg/ml streptomycin and 2 mM L-glutamine. Caco-2 cells were maintained in MEM containing 15% FCS, 1% non-essential amino acids and 1 μg/ml bovine insulin (Sigma I-6634). LLC-PK1 cells were grown in M199 (Gibco), 10% FCS, 100 U/ml penicillin, 100 μg/ml streptomycin and 2 mM L-glutamine. For whole cell lysate analysis, 10^5 cells were plated on 6.5 mm diameter, 0.4 μm, polycarbonate Transwell filters from Costar, in 0.25 ml of medium. The basolateral chamber contained 0.75 ml of medium. For immunoprecipitation, 5×10^5 cells were plated onto 24 mm Transwell filters, in 2 ml of medium, with 3 ml of medium in the lower chamber. Cells were used 4-7 days after plating. […]
structure (smiles),measurement,value
"CCCC(=O)O[C@@H]1[C@@H](C)[C@@]2(O)[C@@H](C=C(CO)C[C@]3(O)C(=O)C(C)=C[C@@H]23)[C@@H]2C(C)(C)[C@]12OC(=O)CCC [PDB, Phorbol-12,13-dibutyrate]",migration of p100 and p120,increased markedly
